Results from PMC4890124, “Antimicrobial activity, improved cell selectivity and mode of action of short PMAP-36-derived peptides against bacteria and Candida” (Scientific Reports, 2016).
≈ marks a conversion by molar mass, not a printed value. Where two headings read alike, the source gives them in different places. Marks after values point to notes of the source that are not given here. Peptide text beside a SMILES is read from it.

Key:
[1] = system: Candida albicans CGMCC 2.2086; assay: microbe, parasite or virus in culture; type: cell-based; conditions: for MFC C. albicans 2.2086 / MIC C. albicans 2.2086: CGMCC 2.2086, 48 h
Text: (§1) The antifungal activities were monitored in RPMI-1640 broth medium by a 2-fold microdilution assay according to the Clinical and Laboratory Standards Institute (CLSI) methods. The Candida albicans CGMCC 2.2086, Candida tropicalis CGMCC 2.1975, and Candida krusei CGMCC 2.1857 fungal strains were purchased from the China General Microbiological Culture Collection Center (CGMCC, Beijing, China). Clinically isolated Candida albicans CA2761 was provided by the 4th Affiliated Hospital of Harbin Medical University. Briefly, fungal strains were cultured on YPD agar plates (1% peptone, 0.5% yeast extract, 1% glucose and 2% agar) at 28 °C to prepare Candida suspensions with a turbidity of a 0.5 McFarland standard. A total of 50 μl inoculum cell suspension diluted in RPMI-1640 broth medium was added to an equal volume of peptide solution to achieve a final peptide concentrations ranging from 0.25 μM to 128 μM in a 96-well plate. Pure broth alone or with inoculum suspensions was used as the negative control or the positive control, respectively. The plate was incubated at 28 °C for 48 h. MIC was considered the lowest concentration at which no fungal growth was visually observed under experimental conditions. […] After 48 h incubation at 28 °C, MFC was defined as the lowest concentration of peptides that killed at least 99.9% of the initial inoculums. Experiments were performed in triplicate with three biological replicates.

[2] = system: Candida krusei CGMCC 2.1857; assay: microbe, parasite or virus in culture; type: cell-based
Text: as §1

[3] = system: Candida tropicalis CGMCC 2.1975; assay: microbe, parasite or virus in culture; type: cell-based
Text: as §1

[4] = system: C. albicans CA276 (clinical isolate); assay: microbe, parasite or virus in culture; type: cell-based, Candida albicans; conditions: for MFC C. albicans CA276 / MIC C. albicans CA276: CA276 (clinical isolate, 48 h)
Text: as §1

[5] = system: Bacillus subtilis CMCC 63501; type: cell-based; conditions: CMCC 63501, 18 h
Experimental: (§2) The peptide antibacterial activity was determined against both gram-positive and gram-negative bacteria strains, including Escherichia coli ATCC 25922, Escherichia coli UB1005, Salmonella enterica serovar typhimurium C77-31, Staphylococcus aureus ATCC 29213, Staphylococcus aureus ATCC 25923, Bacillus subtilis CMCC 63501, and Staphylococcus epidermidis ATCC 12228. Clinically isolated Escherichia coli EC183 was provided by the 4th Affiliated Hospital of Harbin Medical University. MIC of the peptides was measured using a modified version of the National Committee for Clinical Laboratory Standards (NCCLS) broth microdilution method as described previously. The bacterial strains were inoculated and grown to mid-log phase in fresh Mueller-Hinton broth (MHB) at 37 °C. Bacterial inoculum suspensions were prepared at a final concentration of approximately 1 × 10^5 CFU/ml. Peptides were 2-fold serially diluted to make different concentrations, from 0.5 to 256 μM. Equal volumes of inoculum suspensions were then added to each well of a sterile 96-well plate with different concentrations of peptides, and the plate was incubated for 18 h at 37 °C. Broth with or without bacteria was employed as the positive control or the negative control, respectively. MIC was defined as the lowest concentration of peptides that prevented visible turbidity by visual inspection. […] After overnight incubation at 37 °C, MBC was defined as the lowest concentration of peptides that killed at least 99.9% of the initial inoculums. Experiments were performed in triplicate with three biological replicates.

[6] = system: Clinically isolated Escherichia coli EC183; type: cell-based; conditions: Clinically isolated EC183, 18 h
Experimental: as §2

[7] = system: Escherichia coli ATCC 25922; type: cell-based; conditions: ATCC 25922, 18 h
Experimental: as §2

[8] = system: Escherichia coli UB1005; type: cell-based; conditions: UB1005, 18 h
Experimental: as §2

[9] = system: Salmonella enterica serovar typhimurium C77-31; type: cell-based; conditions: three independent experiments; for MBC S. typhi C77-31: lowest concentration killing at least 99.9% of initial inoculum
Experimental: as §2

[10] = system: Staphylococcus aureus ATCC 25923; type: cell-based; conditions: ATCC 25923, 18 h
Experimental: as §2

[11] = system: Staphylococcus aureus ATCC 29213; type: cell-based; conditions: ATCC 29213, 18 h
Experimental: as §2

[12] = system: Staphylococcus epidermidis ATCC 12228; type: cell-based; conditions: ATCC 12228, 18 h
Experimental: as §2

Row | Compound | MBC B. subtilis 63501 [5] | MIC B. subtilis 63501 [5] | MBC E. coli EC183 [6] | MIC E. coli EC183 [6] | MBC E. coli 25922 [7] | MBC E. coli 1005 [8] | MBC S. typhi C77-31 [9] | MBC S. aureus 25923 [10] | MBC S. aureus 29213 [11] | MBC S. epidermidis 12228 [12] | MFC C. albicans 2.2086 [1] | MIC C. albicans 2.2086 [1] | MFC C. albicans CA276 [4] | MIC C. albicans CA276 [4] | also measured
1 | OC(Cn1cncn1)(Cn1cncn1)c1ccc(F)cc1F [Fluconazole, reference compound] |  |  |  |  |  |  |  |  |  |  |  |  |  |  | MIC ([1]; Candida albicans, CGMCC2, CLSI 2-fold microdilution, RPMI-1640, 28 °C for 48 h, visual, three independent experiments): 2 µM (≈ 0.613 µg/mL); MFC ([1]; Candida albicans, CGMCC2, lowest concentration killing at least 99.9% of initial inoculum, YPD agar, 48 h at 28 °C, three independent experiments): 2 µM (≈ 0.613 µg/mL); MIC ([2]; Pichia kudriavzevii, CGMCC2, CLSI 2-fold microdilution, RPMI-1640, 28 °C for 48 h, visual, three independent experiments): 64 µM (≈ 19.6 µg/mL); MFC ([2]; Pichia kudriavzevii, CGMCC2, lowest concentration killing at least 99.9% of initial inoculum, YPD agar, 48 h at 28 °C, three independent experiments): 64 µM (≈ 19.6 µg/mL); MIC ([3]; Candida tropicalis, CGMCC2, CLSI 2-fold microdilution, RPMI-1640, 28 °C for 48 h, visual, three independent experiments): 0.25 µM (≈ 0.0766 µg/mL); MFC ([3]; Candida tropicalis, CGMCC2, lowest concentration killing at least 99.9% of initial inoculum, YPD agar, 48 h at 28 °C, three independent experiments): 1 µM (≈ 0.306 µg/mL); MIC ([4]; Candida albicans, CLSI 2-fold microdilution, RPMI-1640, 28 °C for 48 h, visual, three independent experiments): 2 µM (≈ 0.613 µg/mL); MFC ([4]; Candida albicans, lowest concentration killing at least 99.9% of initial inoculum, YPD agar, 48 h at 28 °C, three independent experiments): 2 µM (≈ 0.613 µg/mL)
2 | CC[C@H](C)[C@H](NC(=O)[C@H](Cc1c[nH]c2ccccc12)NC(=O)[C@H](CCCCN)NC(=O)[C@H](CC(C)C)NC(=O)[C@@H](NC(=O)[C@H](CCCCN)NC(=O)CNC(=O)[C@@H](NC(=O)[C@H](CCCCN)NC(=O)[C@H](CCCCN)NC(=O)[C@H](CC(C)C)NC(=O)[C@@H](N)CCCNC(=N)N)[C@@H](C)CC)C(C)C)C(N)=O [RI12] (H-RLKKIGKVLKWI-NH2) | 8 µM (≈ 11.8 µg/mL) | 2 µM (≈ 2.96 µg/mL) | 4 µM (≈ 5.92 µg/mL) | 2 µM (≈ 2.96 µg/mL) | 32 µM (≈ 47.4 µg/mL) | 32 µM (≈ 47.4 µg/mL) | 32 µM (≈ 47.4 µg/mL) | 128^c (128) μM | 128 µM (≈ 190 µg/mL) | 64^c (64) μM | 128 µM (≈ 190 µg/mL) | 128 µM (≈ 190 µg/mL) | 128 µM (≈ 190 µg/mL) | 128 µM (≈ 190 µg/mL) | MFC C. krusei 2.1857 ([2]; CGMCC 2.1857, 48 h): 16 µM (≈ 23.7 µg/mL); MIC C. krusei 2.1857 ([2]; CGMCC 2.1857, 48 h): 16 µM (≈ 23.7 µg/mL); MFC C. tropicalis 2.1975 ([3]; CGMCC 2.1975, 48 h): 8 µM (≈ 11.8 µg/mL); MIC C. tropicalis 2.1975 ([3]; CGMCC 2.1975, 48 h): 8 µM (≈ 11.8 µg/mL)
3 | CC[C@H](C)[C@H](NC(=O)[C@H](Cc1c[nH]c2ccccc12)NC(=O)[C@H](CCCCN)NC(=O)[C@H](CC(C)C)NC(=O)[C@@H](NC(=O)[C@H](CCCCN)NC(=O)CNC(=O)[C@@H](NC(=O)[C@H](CCCCN)NC(=O)[C@H](CCCCN)NC(=O)[C@H](CC(C)C)NC(=O)[C@H](CCCNC(=N)N)NC(=O)[C@H](CCCCN)NC(=O)[C@H](CCCNC(=N)N)NC(=O)[C@@H](N)[C@@H](C)O)[C@@H](C)CC)C(C)C)C(N)=O [TI15] (H-TRKRLKKIGKVLKWI-NH2) | 4 µM (≈ 7.47 µg/mL) | 2 µM (≈ 3.73 µg/mL) | 4 µM (≈ 7.47 µg/mL) | 2 µM (≈ 3.73 µg/mL) | 16 µM (≈ 29.9 µg/mL) | 8 µM (≈ 14.9 µg/mL) | 32 µM (≈ 59.7 µg/mL) | 128 µM (≈ 239 µg/mL) | 128 µM (≈ 239 µg/mL) | 64 µM (≈ 119 µg/mL) | 64 µM (≈ 119 µg/mL) | 64 µM (≈ 119 µg/mL) | 128 µM (≈ 239 µg/mL) | 128 µM (≈ 239 µg/mL) | MIC E. coli 25922 [7]: 8 µM (≈ 14.9 µg/mL); MIC E. coli 1005 [8]: 4 µM (≈ 7.47 µg/mL); MIC S. typhi C77-31 ([9]; broth microdilution, MHB, ~1 × 10^5 CFU/ml, 18 h at 37 °C, visual): 8 µM (≈ 14.9 µg/mL); MIC S. aureus 25923 [10]: 32 µM (≈ 59.7 µg/mL); MIC S. aureus 29213 [11]: 32 µM (≈ 59.7 µg/mL); MIC S. epidermidis 12228 [12]: 32 µM (≈ 59.7 µg/mL); MFC ([2]; CGMCC 2.1857, 48 h, read-out: MFC C. krusei 2.1857): 16 µM (≈ 29.9 µg/mL); MIC ([2]; CGMCC 2.1857, 48 h, read-out: MIC C. krusei 2.1857): 8 µM (≈ 14.9 µg/mL); MFC ([3]; CGMCC 2.1975, 48 h, read-out: MFC C. tropicalis 2.1975): 4 µM (≈ 7.47 µg/mL); MIC ([3]; CGMCC 2.1975, 48 h, read-out: MIC C. tropicalis 2.1975): 2 µM (≈ 3.73 µg/mL)
